Source: PMC7705865 (2020)

Key:
[1] = system: 1cf (DNA, aptamer, artificial imidazole 2'-deoxyribonucleoside (Im) replacing T at 4 and A at 24 (Im:Im mispair)) ACCTGGGGGAGTATTGCGGAGGAAGGT; assay: elution from ATP-agarose column; conditions: 300 mM Na+, 5 mM Mg2+; 20 mM MOPS pH 7.4; 3 mM GMP; no elution of aptamer from immobilised ATP
[2] = system: 1af (DNA, aptamer) ACCTGGGGGAGTATTGCGGAGGAAGGT; assay: elution from ATP-agarose column; conditions: 300 mM Na+, 5 mM Mg2+; 20 mM MOPS pH 7.4; 3 mM GMP; no elution of aptamer from immobilised ATP
[3] = system: 1df (DNA, aptamer, artificial imidazole 2'-deoxyribonucleoside (Im) replacing G at 11 and C at 17 (Im:Im mispair)) ACCTGGGGGAGTATTGCGGAGGAAGGT; assay: elution from ATP-agarose column; conditions: 300 mM Na+, 5 mM Mg2+; 20 mM MOPS pH 7.4; 3 mM GMP; no elution of aptamer from immobilised ATP
[4] = system: 1bf (DNA, aptamer, artificial imidazole 2'-deoxyribonucleoside (Im) replacing C at 3 and G at 25 (Im:Im mispair)) ACCTGGGGGAGTATTGCGGAGGAAGGT; assay: elution from ATP-agarose column; conditions: 300 mM Na+, 5 mM Mg2+; 20 mM MOPS pH 7.4; 3 mM GMP; no elution of aptamer from immobilised ATP
[5] = system: 1a (DNA, aptamer) ACCTGGGGGAGTATTGCGGAGGAAGGT; assay: fluorescence, structure-switching strand displacement (system B); conditions: 300 mM Na+, 5 mM Mg2+; 20 mM MOPS pH 8.1, 22 °C; 1 mM AMP; strands 2f (fluorescein) and 2q (DABCYL) displaced
[6] = system: 1bf (DNA, aptamer, artificial imidazole 2'-deoxyribonucleoside (Im) replacing C at 3 and G at 25 (Im:Im mispair)) ACCTGGGGGAGTATTGCGGAGGAAGGT; assay: fluorescence, structure-switching strand displacement; conditions: 300 mM Na+, 5 mM Mg2+; 20 mM MOPS pH 7.4, 22 °C; 1 mM AMP; DABCYL strand 1q displaced
[7] = system: 1cf (DNA, aptamer, artificial imidazole 2'-deoxyribonucleoside (Im) replacing T at 4 and A at 24 (Im:Im mispair)) ACCTGGGGGAGTATTGCGGAGGAAGGT; assay: as above; conditions: 300 mM Na+, 5 mM Mg2+; 20 mM MOPS pH 7.4, 22 °C; 1 mM AMP; DABCYL strand 1q displaced
[8] = system: 1df (DNA, aptamer, artificial imidazole 2'-deoxyribonucleoside (Im) replacing G at 11 and C at 17 (Im:Im mispair)) ACCTGGGGGAGTATTGCGGAGGAAGGT; assay: as above; conditions: 300 mM Na+, 5 mM Mg2+; 20 mM MOPS pH 7.4, 22 °C; 1 mM AMP; DABCYL strand 1q displaced
[9] = system: 1af (DNA, aptamer) ACCTGGGGGAGTATTGCGGAGGAAGGT; assay: as above; conditions: 300 mM Na+, 5 mM Mg2+; 20 mM MOPS pH 7.4, 22 °C; 1 mM AMP; DABCYL strand 1q displaced

SMILES	binding [1]	binding [2]	binding [3]	binding [4]	binding [5]	binding [6]	binding [7]	binding [8]	binding [9]
Nc1nc2c(ncn2[C@@H]2O[C@H](COP(=O)(O)O)[C@@H](O)[C@H]2O)c(=O)[nH]1	no	no	no	no					
Nc1ncnc2c1ncn2[C@@H]1O[C@H](COP(=O)(O)O)[C@@H](O)[C@H]1O					yes	yes	yes	weak	yes
